Structures are written as SMILES. Values after ≈ are worked out from the molar mass of the structure shown.

Consider 1 compound from patent US8765778B2, “Rifamycin derivatives” (Alfa Wassermann, S.p.A., priority 2009, dated 2014).

One test deals with E. faecalis. As to conditions: ATCC 29212, control standard.
The test system of the next test is bacterial infection. The conditions noted are these: following a 10 day course of treatment with a pharmaceutical formulation. The source says: A patient suffering from a bacterial infection is identified.
A further test has as its system S. aureus. The conditions noted are these: S. aureus ATCC29213, control standard. The source says: (§1) They are expressed as milligrams of substance per liter of culture medium.
A further test concerns E. coli. The conditions noted are these: E. coli ATCC 25922, control standard.
Text: as §1

In a further test the test system is P. aeruginosa. As to conditions: P. aeruginosa ATCC 27853, control standard.
Text: as §1

As to `COC1/C=C/OC2(C)Oc3c(C)c(O)c4c([O-])c(c5c([nH]c6cc(C)cc[n+]65)c4c3C2=O)NC(=O)/C(CO)=C\C=C\C(C)C(O)C(C)C(O)C(C)C(OC(C)=O)C1C` (centres unmarked) [Example 2], the M.I.C. in the test on E. faecalis was determined as 64 mg/mL; in the test with S. aureus it was 0.5 mg/mL. Also, the “level of bacterial infection in the patient” value with bacterial infection was “reduced”. Moreover, the MIC with E. coli and in the test with P. aeruginosa was 32 µg/mL (≈ 39.9 µM) each time.

The term MIC denotes the least concentration at which growth counts as inhibited.
